Results from patent publication US11040052B2, “Methods and pharmaceutical compositions for modulating autophagy in a subject in need thereof” (INSERM (INSTITUT NATIONAL DE LA SANTE ET DE LA RECHERCHE …, priority 2013, dated 2021).
Entries after “also recorded” stand apart in the source; their conditions may differ.

Columns and labels:
[1] = tested on: U2OS cells stably expressing GFP-LC3; experiment: Autophagy in cultured cells: GFP-LC3 puncta formation and LC3 lipidation with or without bafilomycin A1; type: cell-based, human; conditions: for autophagic flux (GFP-LC3 puncta formation, LC3 lipidation): cells kept in rich medium, presence and absence of BafA1; for abolition of the effects of AcCoA-replenishing agents on starvation-induced protein deacetylation and autophagy: starved cells plus DCA, DMKG or KIC; for starvation-induced autophagy (GFP-LC3 puncta, LC3 lipidation, autophagic flux): nutrient-depleted (starved) cells in vitro
Procedure: U2OS, HeLa or H4 cells stably expressing GFP-LC3 were seeded in 96-well imaging plates (BD Falcon, Sparks, USA) 24 h before stimulation. Cells were treated with the indicated agents for 4 h. […] Images were analyzed for the presence of GFP-LC3 puncta in the cytoplasm by means of the BD Attovision software (BD Imaging Systems). Cell surfaces were segmented and divided into cytoplasmic and nuclear regions according to manufacturer standard proceedings. RB 2×2 and Marr-Hildreth algorithms were used to recognize cytoplasmic GFP-LC3 positive dots. Statistical analyses were implemented on the R software (http://www.r-project.org/). For quantitative analyses of protein acetylation, cell surfaces were segmented into cytoplasm and nuclei regions, and staining intensity of each individual cell was measured for statistical analysis.
Membranes were then sliced in different parts according to the molecular weight of the protein of interest to allow simultaneous detection of different antigens within the same experiment. Unspecific binding sites were saturated by incubating membranes for 1 h in 0.05% Tween 20 (v:v in TBS) supplemented with 5% non-fat powdered milk (w:v in TBS), followed by the overnight incubation with primary antibodies specific for acetylated-lysine, LC3, phospho-AMPK (Thr172), AMPK, phospho-ribosomal protein S6 kinase (Thr421/Ser424), ribosomal protein S6 kinase, or STQM/p62 (Santa Cruz Biotechnology). Development was performed with appropriate horseradish peroxidase (HRP)-labeled secondary antibodies (Southern Biotech, Birmingham, USA) plus the SuperSignal West Pico chemoluminescent substrate (Thermo Scientific-Pierce). An anti-glyceraldehyde-3-phosphate dehydrogenase antibody (Chemicon International, Temecula, USA) was used to control equal loading of lanes.
For immunoblotting, protein extracts obtained by cellular lysis via RIPA buffer were run on 4-12% Bis-Tris acrylamide (Invitrogen) and electrotransferred to […] PVDF membranes (Biorad, USA). Unspecific binding sites were saturated by incubating membranes for 1 h in 0.05% Tween 20 (v:v in TBS) supplemented with 5% non-fat powdered milk (w:v in TBS), followed by an overnight incubation with primary antibodies specific for, LC3, phospho-AMPK (Thr172), AMPK, phosphor-ACC (Ser79), ACC, phospho-ribosomal protein S6 kinase (Thr421/Ser424), ribosomal protein S6 kinase, or SQSTM/p62 (Abnova). Membranes were opportunely cut in order to allow simultaneous detection of different molecular weight proteins. Development was performed with horseradish peroxidase (HRP)-labeled secondary antibodies (Southern Biotech, Birmingham, USA) plus the SuperSignal West Pico chemo luminescent substrate (Thermo Scientific-Pierce). An anti-glyceraldehyde-3-phosphate dehydrogenase antibody (Abcam) and anti-Actin antibody (Abcam) were used to ensure equal loading of lanes. Quantification was performed by densitometry by means of Image J software.
U2OS and H4 cells stably expressing GFP-LC3 were seeded in 96-well or 384-well imaging plates (BD Falcon, Sparks, USA). 24 h before stimulation, ells were treated with the indicated agents for 6 hours in absence of lysososomal ATPase inhibitors and for 3 hours in presence of Bafilomycin A1. […] Images were analyzed for the detection of GFP-LC3 puncta in the cytoplasm by means of the BD Attovision software (BD Imaging Systems. Cellular regions of interest, cytoplasm and nucleus, were defined and segmented according to standard proceedings. RB 2×2 and Marr-Hildreth algorithms were employed to allow the detection of GFP LC3 puncta. Statistical analyses were conducted using the R and Prism softwares (http://www.r-project.org/). For quantitative analyses of protein acetylation, cell surfaces were segmented intocytoplasmic and nucleic regions, and staining intensity of each individual cell was measured for statistical analysis.

AcCoA levels = experiment: Targeted analysis of AcCoA levels in cultured cells (HPLC-MS); type: cell-based, human; conditions: for AcCoA levels: cells kept in rich medium; for cytosolic AcCoA levels: cytosolic fraction; for AcCoA levels in starved cells: nutrient-depleted (starved) cells in vitro
Procedure: Cells were trypsinized, pelleted at 1000 rpm for 4 min, washed with PBS and pelleted again at 1000 rpm for 4 min. Cells were then resuspended in 5 ml of ice-cold hyposmotic buffer and keep on ice for 5 min. Cells were broken to release nuclei using a pre-chilled Dounce homogenizer (20 strokes with a tight pestle) and then were then centrifuged at 228 g.
For in vitro experiments, cell pellets were resuspended in 300 μL of water with HEPES and EDTA (pH 7.4) at 1 mM containing internal standard acetylcoenzyme A (2-C13) at 1 mg/L, vortexed and heated at 100° C. for 1 min. Samples were incubated in liquid nitrogen for 1 min and thawed at room temperature two times. They were let for 1 h at −20° C. and centrifuged at 4° C. during 15 min at 13,000 g. Supernatants were transferred in HPLC vials and injected in HPLC/MS or kept at −80° C. until injection. For in vivo experiments, frozen tissues were placed in ice-cold homogenization tubes containing ceramic beads. Five μL of ice-cold methanol/water (80/20; v/v) were added for 1 mg of tissue. Tissues were homogenized two times for 20 s at 5,500 rpm using Precellys 24 tissue homogenator (Bertin Technologies, Montigny-le-Bretonneux, France). Samples were placed 10 min on ice. Next they were centrifuged at 4° C. during 15 min at 13,000 g. Supernatants were transferred in HPLC vials and injected in HPLC-MS system or kept at −80° C. until injection.
Targeted analyses were performed on Rapid Resolution Liquid Chromatography (RRLC) 1200SL system (Agilent Technologies, Waldbronn, Germany) coupled to a Triple Quadruple QQQ 6410 mass spectrometer (Agilent Technologies). RRLC analysis was done on 150×2.1 mm, 3.5 μm Eclipse Plus SB-Aq column with a pre-column 30 mm×2.1 mm 3.5 μm Eclipse plus (Agilent Technologies) with water containing 10 mmol/L of ammonium acetate and 0.01% of acetic acid in channel A and acetonitrile in channel B in gradient mode at a flow rate of 0.3 mL·min^−1: t=0 min 2% B; t=9 min 95% B; t=11 min 95% B; re-equilibration time of 3 min. Mass spectrometer analysis was done in positive electrospray ionization mode at +4 kV on the QQQ system operating in MRM mode. MRM transitions were optimized with standard of AcCoA and AcCoA A 2-C^13 with direct infusion. Two transitions were recorded for each compound; • AcCoA 810>303 CE (collision energy) 28V; fragmentor 180V • 810>428 CE 20V • AcCoA 2-C13 812>305 CE 28V; fragmentor 180V • 812>428 CE 24V […]

Row | Structure (SMILES) | autophagic flux (GFP-LC3 puncta formation, LC3 lipidation) [1] | abolition of the effects of AcCoA-replenishing agents on starvation-induced protein deacetylation and autophagy [1] | AcCoA levels (AcCoA levels) | cytosolic AcCoA levels (AcCoA levels) | starvation-induced autophagy (GFP-LC3 puncta, LC3 lipidation, autophagic flux) [1] | AcCoA levels in starved cells (AcCoA levels)
1 | O=C(O)c1cccc(C(=O)O)c1C(=O)O [BTC, 1,2,3-benzenetricarboxylate] | increased autophagic flux; also recorded: induced the triad | cancelled the inhibitory effects; also recorded: abolished both the protein hyperacetylation and autophagy suppression | reduced both AcCoA levels | induced the triad of AcCoA depletion |  | 
2 | COC(=O)CCC(=O)C(=O)OC [DMKG, dimethyl-α-ketoglutarate] |  |  |  | also raised the cytosolic concentration of AcCoA | abolished starvation-induced autophagy; also recorded: low autophagy | increased cellular AcCoA levels; also recorded: maintained high AcCoA
3 | O=C(O)CC(O)(C(=O)O)C(O)C(=O)O (stereo not drawn) [HC, hydroxycitrate] | increased autophagic flux; also recorded: induce autophagic flux; also recorded: strongly stimulated autophagy both in vitro and in vivo; also recorded: stimulated autophagic flux in cultured cancer cells | cancelled the inhibitory effects; also recorded: abolished both the protein hyperacetylation and autophagy suppression | reduced both AcCoA levels | reduced cytoplasmic AcCoA levels |  | 
4 | CC(C)CC(=O)C(=O)O [KIC, ketoisocaproic acid] |  |  |  | also raised the cytosolic concentration of AcCoA | inhibition of starvation induced autophagy; also recorded: inhibited the starvation-induced increase in autophagic flux; also recorded: more efficient than leucine in suppressing autophagy | increase in AcCoA levels; also recorded: sufficient to avoid AcCoA depletion
5 | O=C(O)CCCCC1CCSS1 (stereo not drawn) [LA, lipoic acid] |  |  |  | also raised the cytosolic concentration of AcCoA | abolished starvation-induced autophagy; also recorded: blunted starvation-induced mTORC1 inhibition, AMPK activation and autophagy flux | increased both cellular AcCoA levels; also recorded: maintain high AcCoA
6 | N#CC(=Cc1cn(-c2ccccc2)c2ccccc12)C(=O)O [UK5099, 2-Cyano-3-(1-phenyl-1H-indol-3-yl)-2-propenoic acid] | increased autophagic flux; also recorded: induction of GFP-LC3 puncta and lipidation of endogenous LC3-I to LC3-II; also recorded: induction of GFP-LC3 puncta, and lipidation of endogenous LC3-I to LC3-II |  | reduced both AcCoA levels; also recorded: depletion of intracellular AcCoA | also raised the cytosolic concentration of AcCoA |  | 
7 | CC1=NN(c2ccc(C(=O)O)cc2)C(=O)/C1=C\c1ccc(-c2cc(C)c(C)cc2[N+](=O)[O-])o1 [c646] | induced autophagy both in vitro, in cultured cells, and in vivo, in mice | precluded the inhibitory effect of AcCoA-replenishing agents on starvation-induced autophagy |  |  |  | 
8 | CC(C)C[C@H](N)C(=O)O [leucine] |  |  |  |  | suppression of autophagy | sufficient to maintain high AcCoA levels
